Experimental data from patent US20230211001A1, “Lysosomal Targeting Molecules Comprising Knottin Peptides And Related Compositions And Methods” (The Board of Trustees of the Leland Stanford Junior …, priority 2020, published 2023).
Non-standard residues stand in square brackets, D forms with d. Primed or numbered codes have the meaning given here. No end group written: not given here. Orn(N3)′ = its azide, alkyne or alkene has reacted where a group follows in round brackets; Orn(N3) = [N-]=[N+]=NCCC[C@H](N)C(=O)O; tri‑GalNAc‑DBCO = not defined here

Key:
[1] = molecular target: integrins that bind to PIP (total surface level on HEPG2 cells); assay: cell-based or functional assay
[2] = test system: cation independent M6PR (CIM6PR); settings: compared to mannose-6-phosphate glycans; cited from earlier work
[3] = molecular target: T1, αvβ3 integrin (Homo sapiens, UniProt P05106+P06756); assay: Cell surface integrin levels by live-cell flow cytometry in HEPG2 cells, anti-αvβ3 detection; format: cell-based; settings: 44 h, 100 nM
T1 construct: endogenous in cells; host or cells: HEPG2
Procedure: (§1) FIG. 13 Panel A: Synthesis of PIP—GaINAc. Tri-GaINAc-DBCO was conjugated to PIP, a knottin peptide that binds to multiple integrins. Panel B: Degradation of cell surface integrins in HEPG2 cells as determined by live-cell flow cytometry following 44 h of treatment with 100 nM PIP or PIP—GaINAc. Anti-αvβ3, anti-αvβ5 and PIP-Fc fusion construct were used for detection. PIP was genetically fused to the Fc domain of a mouse IgG2a to generate a PIP-Fc fusion construct that measures the surface expression of integrins recognized by PIP. Panel C: Percent proliferation of HEPG2 cells following 44 h of treatment with 50 nM, 100 nM or 200 nM PIP or PIP—GaINAc. Proliferation was quantified by phase confluence over time using IncuCyte. Panel D: Time course of percent proliferation of HEPG2 cells during 44 h of treatment with 200 nM PIP or PIP—GaINAc. Panel E: Percent proliferation of HEPG2 cells for 6 d following wash-out. Cells were treated with 200 nM PIP or PIP—GaINAc on day 0. PIP+ and PIP—GaINAc+ indicate the conditions where cells were washed on day 4 and replaced with fresh medium without treatment. […] P values were determined by unpaired two-tailed t-tests.
(§2) The surface levels of integrins were measured by flow cytometry following treatment in HEPG2 cells. […] Nonetheless, the total surface level of integrins that bind to PIP was determined by utilizing a PIP-Fc fusion for staining of the Fc fragment. […]

[4] = molecular target: T2, integrin αvβ5 (Homo sapiens, UniProt P06756+P18084); assay: Cell surface integrin levels by live-cell flow cytometry in HEPG2 cells, anti-αvβ5 detection; format: cell-based; settings: 44 h, 100 nM
T2 construct: endogenous in cells; host or cells: HEPG2
Procedure: as §1, §2

[5] = test system: integrins that bind to PIP; assay: Total surface level of integrins that bind to PIP, PIP-Fc fusion detection, HEPG2 cells; format: cell-based; settings: 44 h, 100 nM, flow cytometry
Procedure: as §1, §2

[6] = test system: HEPG2 cells; assay: Antiproliferation assay (IncuCyte phase confluence); format: cell-based; settings: for cell morphology: 100 nM, live imaging over 5 days following treatment; for antiproliferative phenotype after wash-out: 200 nM on day 0, washed on day 4, followed 6 d
Procedure: FIG. 13 Panel A: Synthesis of PIP—GaINAc. Tri-GaINAc-DBCO was conjugated to PIP, a knottin peptide that binds to multiple integrins. Panel B: Degradation of cell surface integrins in HEPG2 cells as determined by live-cell flow cytometry following 44 h of treatment with 100 nM PIP or PIP—GaINAc. Anti-αvβ3, anti-αvβ5 and PIP-Fc fusion construct were used for detection. PIP was genetically fused to the Fc domain of a mouse IgG2a to generate a PIP-Fc fusion construct that measures the surface expression of integrins recognized by PIP. Panel C: Percent proliferation of HEPG2 cells following 44 h of treatment with 50 nM, 100 nM or 200 nM PIP or PIP—GaINAc. Proliferation was quantified by phase confluence over time using IncuCyte. Panel D: Time course of percent proliferation of HEPG2 cells during 44 h of treatment with 200 nM PIP or PIP—GaINAc. Panel E: Percent proliferation of HEPG2 cells for 6 d following wash-out. Cells were treated with 200 nM PIP or PIP—GaINAc on day 0. PIP+ and PIP—GaINAc+ indicate the conditions where cells were washed on day 4 and replaced with fresh medium without treatment. PIP++ and PIP—GaINAc++ indicate the conditions where cells were washed on day 4 and replaced with fresh medium containing 200 nM PIP or PIP—GaINAc. Panel F: Live HEPG2 imaging by IncuCyte throughout the 5 d after treatment with 100 nM PIP or PIP—GaINAc. Images are representative of three independent experiments for F. Data in B-E represent three independent experiments, where B and C show the mean of three independent experiments ±s.e.m. P values were determined by unpaired two-tailed t-tests.
HEPG2 cells (100,000 cells per well in a 24-well plate) were treated with various concentrations of PIP or PIP—GaINAc. After treatments were added, cells were imaged every 4 h for the indicated times in the IncuCyte S3 Live-Cell Analysis system using the phase-imaging channel and a ×10 objective. For co-incubation experiments with ASF, 10 mg ml^−1 of ASF (Sigma-Aldrich) was treated with either PIP or PIP—GaINAc. The following analysis parameters were used to quantify phase confluence (%) in the Incucyte software: segmentation adjustment was set to 1, hole fill (μm2) was set to 300 and area minimum (μm^2) was set to 150. No other constraints were selected. Percent proliferation was then calculated by normalizing phase confluence values. Specifically, at any given timepoint n in the treatment time course (t=0→t=n), the change in confluence from t=0 to t=n (Δconfluence t=n) was calculated for each well as follows: Δconfluence t=n of well x=(confluence t=n of well x)−(confluence t=0 of well x), where x represents any given well in the experiment. This ensures that the value of each well is set to 0 at t=0. The average Δconfluence at the final time point of the untreated wells was set as the ‘max value’ (equivalent to 100% proliferation). Finally, data were normalized as follows:
% proliferationt=n=n of well x=(Δconfluencet=n of well x)/(max value),
where it is noted that while the metric is labeled as “% proliferation”, the effects quantitated are the summation of both cell proliferation and cell survival.

[7] = compared to mannose-6-phosphate glycans; cited from earlier work
[8] = test system: tumor-associated integrins; settings: αvβ3, αvβ5, αvβ6 and α5β1 integrins; cited from earlier work
[9] = molecular target: αvβ3 integrin on HEPG2 cells (UniProt P06756); assay: cell-based or functional assay
αvβ3 integrin on HEPG2 cells, sequence (P06756 31-1048 limits assumed, chain 1 of 2): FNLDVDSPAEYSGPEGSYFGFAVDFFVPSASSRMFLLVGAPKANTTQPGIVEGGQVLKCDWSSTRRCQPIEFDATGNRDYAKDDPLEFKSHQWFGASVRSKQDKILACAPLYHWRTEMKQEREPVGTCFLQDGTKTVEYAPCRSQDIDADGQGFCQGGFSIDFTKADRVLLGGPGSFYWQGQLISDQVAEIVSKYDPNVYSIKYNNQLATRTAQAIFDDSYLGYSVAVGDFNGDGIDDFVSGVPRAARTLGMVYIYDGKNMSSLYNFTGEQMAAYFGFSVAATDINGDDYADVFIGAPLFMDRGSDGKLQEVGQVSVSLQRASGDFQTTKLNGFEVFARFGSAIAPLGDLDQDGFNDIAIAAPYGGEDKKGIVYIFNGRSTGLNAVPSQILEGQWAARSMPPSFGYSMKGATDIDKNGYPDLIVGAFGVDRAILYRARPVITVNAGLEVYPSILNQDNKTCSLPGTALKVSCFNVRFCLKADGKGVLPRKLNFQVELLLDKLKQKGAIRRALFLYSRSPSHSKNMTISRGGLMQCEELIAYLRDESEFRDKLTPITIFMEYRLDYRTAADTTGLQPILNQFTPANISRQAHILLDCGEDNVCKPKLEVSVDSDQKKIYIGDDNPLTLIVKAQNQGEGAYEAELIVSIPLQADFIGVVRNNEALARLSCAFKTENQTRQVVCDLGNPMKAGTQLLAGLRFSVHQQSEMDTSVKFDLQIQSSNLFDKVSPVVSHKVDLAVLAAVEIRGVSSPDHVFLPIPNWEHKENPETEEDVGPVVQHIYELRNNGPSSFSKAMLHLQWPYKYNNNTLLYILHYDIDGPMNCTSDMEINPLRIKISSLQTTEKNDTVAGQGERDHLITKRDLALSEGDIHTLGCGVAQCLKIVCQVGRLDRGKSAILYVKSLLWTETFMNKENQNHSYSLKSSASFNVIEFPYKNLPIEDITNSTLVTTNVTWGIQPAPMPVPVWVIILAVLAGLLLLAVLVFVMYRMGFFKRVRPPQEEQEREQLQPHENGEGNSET
αvβ3 integrin on HEPG2 cells, sequence (P05106 27-788 limits assumed, chain 2 of 2, further chain): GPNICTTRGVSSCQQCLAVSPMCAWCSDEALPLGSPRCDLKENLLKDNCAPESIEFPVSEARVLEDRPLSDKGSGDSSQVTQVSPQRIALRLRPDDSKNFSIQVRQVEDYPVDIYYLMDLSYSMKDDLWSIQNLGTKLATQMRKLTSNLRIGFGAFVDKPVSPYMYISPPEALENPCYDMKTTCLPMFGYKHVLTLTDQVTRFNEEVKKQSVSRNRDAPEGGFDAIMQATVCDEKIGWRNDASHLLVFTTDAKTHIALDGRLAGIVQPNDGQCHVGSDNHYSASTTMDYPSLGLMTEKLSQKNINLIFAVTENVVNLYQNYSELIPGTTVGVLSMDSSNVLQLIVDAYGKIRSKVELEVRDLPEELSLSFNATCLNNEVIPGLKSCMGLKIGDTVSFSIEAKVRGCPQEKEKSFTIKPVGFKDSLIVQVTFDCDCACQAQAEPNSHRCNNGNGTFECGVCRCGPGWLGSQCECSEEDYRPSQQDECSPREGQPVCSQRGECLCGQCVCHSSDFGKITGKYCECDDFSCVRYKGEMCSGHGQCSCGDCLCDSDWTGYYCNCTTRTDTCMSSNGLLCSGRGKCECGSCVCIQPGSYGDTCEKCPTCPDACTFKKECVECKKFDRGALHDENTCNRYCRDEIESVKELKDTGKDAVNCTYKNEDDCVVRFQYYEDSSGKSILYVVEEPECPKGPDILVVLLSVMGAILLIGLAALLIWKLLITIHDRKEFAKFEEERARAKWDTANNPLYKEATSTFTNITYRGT

T2 sequence (P06756 31-889 limits assumed): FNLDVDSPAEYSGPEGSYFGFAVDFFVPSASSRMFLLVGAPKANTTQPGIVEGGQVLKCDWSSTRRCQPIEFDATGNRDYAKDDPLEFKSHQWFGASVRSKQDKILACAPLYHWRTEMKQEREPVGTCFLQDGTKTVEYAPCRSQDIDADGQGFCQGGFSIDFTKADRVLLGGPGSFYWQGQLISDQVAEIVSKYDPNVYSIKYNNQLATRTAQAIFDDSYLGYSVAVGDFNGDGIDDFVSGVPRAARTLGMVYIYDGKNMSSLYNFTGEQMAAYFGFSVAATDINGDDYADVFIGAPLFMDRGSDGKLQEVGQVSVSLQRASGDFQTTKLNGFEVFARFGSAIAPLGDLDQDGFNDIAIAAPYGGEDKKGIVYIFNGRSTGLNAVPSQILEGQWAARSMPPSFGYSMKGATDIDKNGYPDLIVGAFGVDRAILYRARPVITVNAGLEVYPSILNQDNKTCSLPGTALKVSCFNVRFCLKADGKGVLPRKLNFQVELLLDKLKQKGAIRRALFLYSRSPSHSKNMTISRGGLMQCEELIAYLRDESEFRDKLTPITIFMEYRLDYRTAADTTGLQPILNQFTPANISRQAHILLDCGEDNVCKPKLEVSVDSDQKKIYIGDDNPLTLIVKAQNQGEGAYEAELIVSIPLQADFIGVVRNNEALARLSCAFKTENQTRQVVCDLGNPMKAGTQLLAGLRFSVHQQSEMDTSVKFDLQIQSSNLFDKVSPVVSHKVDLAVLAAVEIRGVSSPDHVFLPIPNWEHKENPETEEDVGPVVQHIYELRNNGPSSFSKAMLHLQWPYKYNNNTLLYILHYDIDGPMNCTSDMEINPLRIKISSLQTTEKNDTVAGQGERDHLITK
T2 sequence (P06756 891-1048 partner limits assumed): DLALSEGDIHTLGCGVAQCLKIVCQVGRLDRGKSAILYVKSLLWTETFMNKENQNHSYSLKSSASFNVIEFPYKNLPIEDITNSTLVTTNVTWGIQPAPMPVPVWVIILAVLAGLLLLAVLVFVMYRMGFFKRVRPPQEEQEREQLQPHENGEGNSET
T2 sequence (P18084 24-799): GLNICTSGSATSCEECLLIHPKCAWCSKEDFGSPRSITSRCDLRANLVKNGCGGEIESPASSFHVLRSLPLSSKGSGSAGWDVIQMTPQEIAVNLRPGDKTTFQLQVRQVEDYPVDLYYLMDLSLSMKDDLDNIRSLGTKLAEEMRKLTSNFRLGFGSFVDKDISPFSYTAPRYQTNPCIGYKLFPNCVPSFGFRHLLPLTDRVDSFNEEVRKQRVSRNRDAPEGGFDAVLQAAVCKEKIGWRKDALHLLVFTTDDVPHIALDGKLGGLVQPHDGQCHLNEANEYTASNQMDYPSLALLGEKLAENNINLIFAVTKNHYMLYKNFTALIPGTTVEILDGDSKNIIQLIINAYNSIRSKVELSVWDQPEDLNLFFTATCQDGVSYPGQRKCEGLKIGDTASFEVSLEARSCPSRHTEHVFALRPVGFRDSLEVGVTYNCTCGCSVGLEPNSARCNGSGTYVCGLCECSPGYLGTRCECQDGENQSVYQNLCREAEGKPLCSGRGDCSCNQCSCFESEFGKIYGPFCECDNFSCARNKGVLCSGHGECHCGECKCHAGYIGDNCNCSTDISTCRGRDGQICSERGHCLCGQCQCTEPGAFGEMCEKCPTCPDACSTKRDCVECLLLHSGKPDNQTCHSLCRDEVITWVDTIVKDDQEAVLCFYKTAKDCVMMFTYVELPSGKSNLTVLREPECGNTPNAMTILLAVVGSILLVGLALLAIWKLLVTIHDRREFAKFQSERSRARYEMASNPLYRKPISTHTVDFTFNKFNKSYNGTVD
T1 sequence (P06756 31-889 limits assumed): as the sequence (P06756 31-889 limits assumed) above
T1 sequence (P06756 891-1048 partner limits assumed): as the sequence (P06756 891-1048 partner limits assumed) above
T1 sequence (P05106 27-788): as the sequence (P05106 27-788 limits assumed, chain 2 of 2, further chain) above

Compound | depletion of total surface integrins that bind to PIP on HEPG2 cells, detected by PIP-Fc staining (flow cytometry) [1] [%] | relative binding affinity for the CIM6PR [2] | effect on surface expression of integrin αvβ5 [4] | integrins depleted (detection of PIP-Fc) [5] | cell morphology [6] | antiproliferative phenotype after wash-out [6] | also measured
polyspecific integrin-binding knottin peptide (PIP), synthesized with 5-azido-L-norvaline at position 15 and tyrosine at position 31 | 40 |  |  |  |  |  | 
mannose-6-carboxylate [mannose-6-carboxylate glycans] |  | 0.3 |  |  |  |  | 
PIP—GaINAc: PIP knottin with azido-norvaline site-specifically conjugated via a single tri-GaINAc-DBCO moiety (GCPRPRGDNPPLTC[Orn(N3)′](tri‑GalNAc‑DBCO)QDSDCLAGCVCGPNGYCG; disulfide (positions not given here); not fully specified (bridges); reading uncertain; also: further groups not given here) |  |  | modest degradation | about 60% | formed smaller, circular clusters | persisted after conjugate wash-out | depletion of cell surface αvβ3 integrin levels relative to PIP treatment alone [3]: threefold; antiproliferative effect on co-incubation with asialofetuin (ASF), inhibitor of ASGPR ([6]; 10 mg ml^−1 ASF): ablated the enhanced antiproliferative effect; inhibition of proliferation ([6]; various concentrations (50, 100, 200 nM) and durations of treatment up to 44 h): substantially more effective at inhibiting proliferation than PIP
C=CC(=O)OC[C@@H](O)[C@@H](O)[C@H](O)[C@H](O)C=O [mannose-6-acrylate glycans, mannose-6-acrylate] |  | 0.7 |  |  |  |  | serum stability [7]: better serum stability
PIP: polyspecific integrin-binding knottin peptide, 33-mer (SEQ ID NO:42); 5-azido-L-norvaline at position 15, tyrosine at position 31 (GCPRPRGDNPPLTC[Orn(N3)]QDSDCLAGCVCGPNGYCG; disulfide (positions not given here); not fully specified (bridges); also: further groups not given here) |  |  | increased the expression | 40% | epithelial-like clusters | wash-out rescued proliferation | binding affinity to tumor-associated integrins [8]: high affinity
PIP-GalNAc (PIP conjugated to a single tri-GalNAc-DBCO moiety) (peptide) | 60 |  |  |  |  |  | cell surface αvβ3 integrin level on HEPG2 cells, live-cell flow cytometry after 44 h of treatment with 100 nM [9]: 3 fold
